These results are taken from patent US11219608B2, “Triple combination formulation for treatment of chronic pain” (Northwestern University, priority 2017, dated 2022).

“Also recorded” adds a separate entry of the source.

Series [1] concerns Npc1nmf164 mice. Description: Efficacy in Npc1nmf164 mouse model of Niemann-Pick type C disease. It counts as in vivo.
From the text: Animals—Npc1^nmf164 is a BALB/c strain carry a D1005G (A to G at cDNA bp 3163) mutation in the Npc1 gene 32. […] Homozygous mutants (Npc1^nmf164) along with wild-type littermates (Npc1^+/+), were generated in house by crossing heterozygous mutant (Npc1^+/nmf164) males and females and genotyped as previously described^10. Wild type Balb/c mice were procured from Envigo (Indianapolis, Ind., USA).
Drug injection and organ harvest—The Triple combination formulation (TCF) is a mixture of vorinostat (50 mg/kg), HPBCD (2000 mg/Kg)), PEG 400 (45%) and DMSO (5%). Vorinostat (50 mg/Kg) was made in 5% DMSO and 45% PEG. HPBCD was a 20% (w/v) solution and given dose of 2000 mg/Kg. […] To enable comparative studies with prior regiments, all mice were given two doses of HPBCD at P7 and P15. From P21 onwards, mice received either HPBCD alone or TCF, as indicated. Vo was also initiated at P21. Injections were administered weekly through the intraperitoneal (i.p) route (and the injection volume used was 10 ml/Kg body weight across all treatment groups). For lung histopathology, Npc1^nmf164 mice were analyzed at 100-109 days of age. Long-term safety was assessed for 8-10 months either in Npc^1+/nmf164 or commercially purchased wild type Balb/c mice.
Series [2] can be described thus: Quantification of Vo in lungs by mass spectrometry. It counts as in vivo, mouse. As to conditions: Npc1+/nmf164 mice. On the procedure:
Npc1^+/nmf164 injected i.p. with Vo or TCF. At indicated times, animals sacrificed, perfused with PBS and Vo concentration in lungs were determined by mass spectrometry. n=5. h, hour. *p=0.02, TCF vs Vo 0.5 h, and **p=0.014 TCF vs Vo, 1 h, two tailed Student's t test.
Quantification of Vo in lungs—Npc1^+/nmf164 mice (age 6-7 weeks) were given intraperitoneal injections of either Vo (50 mg/Kg in 45% PEG and 5% DMSO) or TCF (Vo 50 mg/Kg+HPBCD, 2000 mg/Kg+PEG, 45%+DMSO, 5%). At 30 min and 1 h post injection, mice were asphyxiated with CO2, blood was drawn by cardiac puncture and organs were perfused with 20 ml ice-cold PBS through the ventricle. Harvested lungs were cut into small pieces (4-6 mm2) and flash frozen in liquid nitrogen. The quantification of vorinostat was done by Metabolite Profiling Facility, Bindley Bioscience Center, Purdue University, Ind., USA. The detailed methods are as described earlier^10. Briefly, the tissue was homogenized using a Precelly bead homogenizer system utilizing ceramic CK 14 beads. 2 ng of deuterated internal standard (d5-Vorinostat, Toronto Research Chemicals, Ontario, Canada) was added to lung homogenate prior to liquid extraction with acetonitrile. Prior to analysis, samples were reconstituted in 100 μL of 50% water/50% acetonitrile. An Agilent 1200 Rapid Resolution liquid chromatography (HPLC) system coupled to an Agilent 6460 series triple quadrupole mass spectrometer (MS/MS) was used to analyze vorinostat. The data were obtained in positive electrospray ionization (ESI) mode and quantitated by monitoring the following transitions: for Vorinostat, 265→232 with a collision energy of 5 V and for d5-Vorinostat, 270→237 with collision energy of 5 V.

Series [3] concerns Npc1nmf164 mice. Nature of the series: Foamy macrophages in lungs of Npc1nmf164 mice (H&E). It counts as in vivo, mouse. The settings on record: Npc1nmf164 mice at 100 days of age, weekly i.p. On the procedure: H&E stained micrographs showing foamy macrophages (indicated by black arrows) at 100 days of age in the lung of Npc1^+/nmf164 (healthy control) and Npc1^nmf164 (^Npc) mutant mice treated as indicated. Foamy macrophages were abundant in untreated Npc mice. […] Images were taken with 40× objective lens and are representative of 4 mice in each group. Number of mice in each group=4. For quantitation, 10-15 random fields were analyzed per lung section. Untr, Untreated.*p=0.02, TCF vs HPBCD, two-tailed Mann-Whitney test.
Drug injection and organ harvest—The Triple combination formulation (TCF) is a mixture of vorinostat (50 mg/kg), HPBCD (2000 mg/Kg)), PEG 400 (45%) and DMSO (5%). Vorinostat (50 mg/Kg) was made in 5% DMSO and 45% PEG. HPBCD was a 20% (w/v) solution and given dose of 2000 mg/Kg. Detailed methodology on preparing drug solutions have been descried earlier^10. To enable comparative studies with prior regiments, all mice were given two doses of HPBCD at P7 and P15. From P21 onwards, mice received either HPBCD alone or TCF, as indicated. Vo was also initiated at P21. […] For lung histopathology, Npc1^nmf164 mice were analyzed at 100-109 days of age. Long-term safety was assessed for 8-10 months either in Npc^1+/nmf164 or commercially purchased wild type Balb/c mice. […]

Series [4] deals with inflammatory pain model. The settings on record: intrathecal; cited from earlier work.
The test system of series [5] is animal pain models. As to conditions: systemically applied; cited from earlier work.
For series [6] the following is noted: literature, cited from earlier work.
Series [7] deals with SNI. As to conditions: intrathecal injection; cited from earlier work.

Turning to `O=C(CCCCCCC(=O)Nc1ccccc1)NO` [Vo, vorinostat], the “benefit on Npc1nmf164 mouse survival” value in series [1] (Vo in PEG) is “no benefit”. Moreover, the “reduction of Vo lung concentration from 30 min to 60 min” value in series [2] (i.p.) was 65-70%. Also, the concentration at 30 min in series [2] (mouse, lung, ip, 50 mg/Kg, 30 min post i.p. injection) is 3200 ng/g. In addition, the concentration at 60 min in series [2] (mouse, lung, ip, 50 mg/Kg, 60 min post i.p. injection) worked out at 1000 ng/g. In addition, the “accumulation of foamy macrophages in the lungs” value in series [3] is “abundant macrophage accumulation; also recorded: no effect”. Further, in series [4], the “histone acetylation in the spinal cord dorsal horn” value was “enhanced histone acetylation” and the hyperalgesia result is “reduced hyperalgesia”.
As to `CC(/C=C/C(=O)NO)=C\[C@@H](C)C(=O)c1ccc(N(C)C)cc1` [trichostatin A], in series [4], the “histone acetylation in the spinal cord dorsal horn” value is “enhanced histone acetylation” and the hyperalgesia result is reported as “reduced hyperalgesia”.
Take `CCCC(CCC)C(=O)O` [valproic acid]: in series [5], the analgesia entry is reported as “modest analgesia”.
`O=C(/C=C/c1ccc(CN(CCO)CCc2c[nH]c3ccccc23)cc1)NO` [dacinostat]: in series [4], the “histone acetylation in the spinal cord dorsal horn” value was “enhanced histone acetylation” and the hyperalgesia entry is recorded as “reduced hyperalgesia”.
For `COc1cc(/C=C/C(=O)CC(=O)/C=C/c2ccc(O)c(OC)c2)ccc1O` [curcumin], the analgesia entry in series [5] is given as “modest analgesia”.
Regarding `CC(O)COC[C@H]1O[C@@H]2O[C@H]3[C@H](O)[C@@H](O)[C@@H](O[C@H]4[C@H](O)[C@@H](O)[C@@H](O[C@H]5[C@H](O)[C@@H](O)[C@@H](O[C@H]6[C@H](O)[C@@H](O)[C@@H](O[C@H]7[C@H](O)[C@@H](O)[C@@H](O[C@H]8[C@H](O)[C@@H](O)[C@@H](O[C@H]1[C@H](O)[C@H]2O)O[C@@H]8COCC(C)O)O[C@@H]7COCC(C)O)O[C@@H]6COCC(C)O)O[C@@H]5COCC(C)O)O[C@@H]4COCC(C)O)O[C@@H]3COCC(C)O` (stereo partly drawn) [HPBCD, 2-hydroxypropyl-β-cyclodextrin], the “benefit on Npc1nmf164 mouse survival” value in series [1] (2×HPBCD compared to 1×HPBCD alone) was “no additional benefit”. Besides, the “accumulation of foamy macrophages in the lungs” value in series [3] was “abundant macrophage accumulation; also recorded: no effect”. Also, the “blood brain barrier crossing” value in series [6] is “does not cross the blood brain barrier”. Besides, in series [6] (systemic delivery), the distribution to lung entry was “excluded from lung”.
For the compound `O=C(O)[C@H]1O[C@@H](Oc2cc3oc(-c4ccccc4)cc(=O)c3c(O)c2O)[C@H](O)[C@@H](O)[C@@H]1O` [baicalin], in series [7], the histone acetylation result was “reduces histone acetylation” and the pain behavior result is reported as “reverses pain behavior”.
